From patent US20030059511A1, “Sweetener compositions and uses thereof” (AJINOMOTO CO., INC., priority 1999, published 2003)
Where a SMILES comes first, the peptide text is derived from it.

Columns and labels:
[1] = cited from earlier work; for magnification used for the sweetness intensity of the another sweetener with a high intense sweetness: values used for calculation in Example 5; for magnification of sweetness intensity (numerical values in brackets): values used for calculation in Example 17, sucrose = 1; for sweetness intensity, times that of sucrose by weight: reported in JP-A-8-503206 / JP-B-47-31031
[2] = Taste characteristics in a cola drink (9 items, similarity index vs cola drink containing 10% sucrose); assay type: in vivo, human; conditions: non-carbonated cola drink, PSE 10%, vs cola drink with 10% sucrose; smaller = closer to sucrose; 8 panelists
Protocol: The following experiments were performed in the same way as that of Example 2. Instead of aqueous solution, the cola drink of each of derivatives 1 to 9 having a sweetness level equivalent to that of PSE 10% was prepared, and compared with the cola drink containing 10% sucrose. The evaluation method and so on were same as that of Example 2.
When carbon dioxide is blown in the cola drink, the carbonated cola drink is prepared, however, the taste of the cola drink can be compared more easily in that without carbon dioxide. Thus the sensory evaluation of non-carbonated cola drink was performed.
The composition of the cola drink employed was same as that of Example 1.
(§1) The similarity indexes were calculated as those of aqueous solutions. The smaller the similarity index becomes, the better the taste balances, and the closer the taste is to the taste characteristics (quality) of sucrose. The total taste becomes preferable. The similarity indexes of each derivatives are shown as follows. […]
The following experiments were conducted in the same way as that of Example 15. Instead of aqueous solution, the cola drink of each of derivatives 1 to 9 having a sweetness level equivalent to that of PSE 10% was prepared, and compared with the cola drink containing 10% sucrose. All of the evaluation method and so on were same as those of Example 15.
When carbon dioxide is blown in the cola drink, the carbonated cola drink is prepared, however, the taste of the cola drink can be compared more easily in that without carbon dioxide. Thus the non-carbonated cola drink was organoleptically evaluated.
The composition of the cola drink employed was same as that of Example 14.
as §1, with “(quality)of” for “(quality) of”, “each of the” for “each”

[3] = Equations for calculating sweetness intensity and values calculated from them; assay type: in vivo, human; conditions: for magnification of sweetness intensity at PSE 0.5%: sweetener for tabletop use
Description: For example, when preparing a solution having a intensity of sweetness equivalent to that of 10% sucrose, wherein 80% of the 10% of intensity of sweetness is from the sweetener component A and the residual 20% is from the sweetener component B, the sweetness ratio is A:B=8:2. When the sweetening magnification relative to sucrose varies depending on the composition and the concentration of the sweetener component is varied even if it is a same sweetener component (in this case, an exponential curve can be prepared and used for calculation), the objective weight of the sweetener component can be calculated. For example, if the equation for converting sweetness intensity (the exponential curve) component A is Y=aX^b, and the equation for converting sweetness intensity (the exponential curve)of component B is Y=cX^d, the weight ratio of the components A and B in the ratio A:B=8:2, can be determined using the following calculation, where Y is a concentration equivalent to that of sucrose (PSE %), and X is the sweetener component concentration (g/100 ml):
(§2) Equations for calculating sweetness intensity in the cola drink (pH 2.8, 20° C.) are as follows, wherein Y denotes the concentration equivalent to that of sucrose (g/100 ml) and X denotes the concentration of the sweetener (g/100 ml), respectively.
With regard to Acesulfame K, the magnification of sweetness intensity was determined according to the following equation for calculating sweetness intensity.
[Y: concentration equivalent to that of sucrose (g/100ml); X: concentration of Acesulfame K (g/100 ml)]
By using the equation for calculating sweetness intensity in the cola drink (refer to Example 4) and the equation for calculating sweetness intensity of Aspartame (refer to the monthly Journal “Food Chemical” August, page 35, 1997), the necessary amounts of those were calculated. In case of Aspartame, the values at 20° C., pH2.8 were used.
The equation for calculating sweetness intensity of derivative 1 in the aqueous solution is as follows.
Where, the calculation of the sweetness was made by using the equation for calculating sweetness intensity of derivative 4 Y=58775X^1.04. When Y=6.3%, X=0.00015 g/100 ml, When Y=5.1%, X=0.00012 g/100 ml.
as §2, with “Examples for equations” for “Equations”, “(pH2.8,” for “(pH 2.8,”, “follows, and another equations can be prepared in the same manner,” for “follows,”

Molecule	magnification used for the sweetness intensity of the another sweetener with a high intense sweetness [1]	magnification of sweetness intensity (numerical values in brackets) [1]	also measured
Thaumatin	850 times		
CC1=CC(=O)[N-]S(=O)(=O)O1.[K+] [Acesulfame K, reference compound]			Similarity index [2]: ~2.0
OC[C@@H](O)[C@@H](O)[C@H](O)[C@@H](O)CO [sorbitol]		0.75	
OC[C@H]1O[C@H](OC[C@H]2OC(O)(CO)[C@@H](O)[C@@H]2O)[C@H](O)[C@@H](O)[C@@H]1O (stereo partly drawn) [paratinose]		0.4	
C=C1C[C@@]23CC[C@H]4[C@@](C)(CCC[C@@]4(C)C(=O)O[C@@H]4O[C@H](CO)[C@@H](O)[C@H](O)[C@H]4O)[C@@H]2CC[C@]1(O[C@@H]1O[C@H](CO)[C@@H](O)[C@H](O)[C@H]1O[C@@H]1O[C@H](CO)[C@@H](O)[C@H](O)[C@H]1O)C3 [Stevioside]	140 times		
O=C1NS(=O)(=O)c2ccccc21.[Na] [Sodium Saccharine]	190 times		
CC1(C)[C@@H](O[C@H]2O[C@H](C(=O)[O-])[C@@H](O)[C@H](O)[C@H]2O[C@@H]2O[C@H](C(=O)O)[C@@H](O)[C@H](O)[C@H]2O)CC[C@]2(C)[C@H]3C(=O)C=C4[C@@H]5C[C@@](C)(C(=O)[O-])CC[C@]5(C)CC[C@@]4(C)[C@]3(C)CC[C@@H]12.[Na+].[Na+] [disodium glycyrrhizinate]	100 times		
C[C@@H](NC(=O)[C@@H](N)CC(=O)O)C(=O)NC1C(C)(C)SC1(C)C [Alitame]	2000 times		
OC[C@@H](O)[C@@H](O[C@H]1O[C@H](CO)[C@@H](O)[C@H](O)[C@H]1O)[C@H](O)[C@@H](O)CO [maltitol]		0.75	
OC[C@H]1O[C@H](O[C@]2(CCl)O[C@H](CCl)[C@@H](O)[C@@H]2O)[C@H](O)[C@@H](O)[C@H]1Cl [suclarose]	400 times		
COC(=O)[C@H](Cc1ccccc1)NC(=O)[C@H](CC(=O)O)NCCC(C)(C)C [Neotame]			sweetness intensity, times that of sucrose by weight [1]: 10000 times
O=C(CO)[C@@H](O)[C@H](O)[C@H](O)CO [fructose]		1.4	
O=C[C@H](O)[C@@H](O)[C@H](O)CO [D-xylose]		0.4	
OC[C@@H](O)[C@H](O)[C@@H](O)CO [xylitol]		1	
OC[C@H]1O[C@H](O[C@H]2[C@H](O)[C@@H](O)[C@H](O)O[C@@H]2CO)[C@H](O)[C@@H](O)[C@@H]1O [malt sugar]		0.3	
O=S(=O)([O-])NC1CCCCC1.[Na+] [sodium cyclamate]	30 times		
isomerized lactose		0.6	
OC[C@H]1O[C@H](O[C@H]2O[C@H](CO)[C@@H](O)[C@H](O)[C@H]2O)[C@H](O)[C@@H](O)[C@@H]1O [trehalose]		0.45	
paratinit		0.45	
OC[C@H]1O[C@@H](O[C@H]2[C@H](O)[C@@H](O)C(O)O[C@@H]2CO)[C@H](O)[C@@H](O)[C@H]1O (stereo partly drawn) [lactose]		0.2	
OC[C@@H](O)[C@@H](O[C@@H]1O[C@H](CO)[C@H](O)[C@H](O)[C@H]1O)[C@H](O)[C@@H](O)CO [lactitol]		0.35	
O=C1NS(=O)(=O)c2ccccc21 [Saccharine]	190 times		
OC[C@@H](O)[C@@H](O)CO [Erythritol, reference compound]		0.75	magnification of sweetness intensity at PSE 0.5% ([3]; calculated): 0.75 times
COC(=O)[C@H](Cc1ccccc1)NC(=O)[C@@H](N)CC(=O)O [Aspartame, reference compound] (H-Asp-Phe-OMe)			sweetness intensity, times that of sucrose by weight [1]: 200 times; X, concentration of the sweetener when Y=0.5 ([3]; 20° C., pH 2.8): 0.00072 g/100 ml; X, concentration of the sweetener when Y=9 ([3]; 20° C., pH 2.8): 0.04726 g/100 ml; magnification of the sweetness intensity at PSE 5% ([3]; calculated, block ice of Example 12): 130 times; magnification of sweetness intensity at PSE 0.5% ([3]; calculated): 360 times; X, concentration of the sweetener when Y=2 ([3]; cola drink, pH 2.8, 20° C.): 0.0053 g/100 ml; X, concentration of the sweetener when Y=5 ([3]; cola drink, pH 2.8, 20° C.): 0.0202 g/100 ml; X, concentration of the sweetener when Y=8 ([3]; cola drink, pH 2.8, 20° C.): 0.0398 g/100 ml
OC[C@@H](O)[C@@H](O)[C@H](O)[C@H](O)CO [mannitol]		0.6	
